Source: the NIST ThermoML archive (doi:10.1016/j.jct.2016.03.035)
Values joined by “and” are separate entries in the source; they are usually repeats but may differ in a detail not shown here. Identical values can stand only once. ± gives the expanded uncertainty stated by the source.

Test: xn = mol fraction of the nth substance listed
Settings: Gas, Buoyancy - hydrostatic balance with magnetic suspension - two sinkers

C [methane] + CCC
Settings | mass density
273.15 K, 931.05 kPa, x1 = 0.5069 | 13.4744 ± 0.017 kg/m3
273.15 K, 971.34 kPa, x1 = 0.5069 | 14.1245 ± 0.014 kg/m3
273.15 K, 971.91 kPa, x1 = 0.5069 | 14.1339 ± 0.014 kg/m3
273.15 K, 972.48 kPa, x1 = 0.5069 | 14.1428 ± 0.014 kg/m3
273.15 K, 980.94 kPa, x1 = 0.5069 | 14.2794 ± 0.092 kg/m3
273.15 K, 986.21 kPa, x1 = 0.5069 | 14.3656 ± 0.091 kg/m3
273.15 K, 991.45 kPa, x1 = 0.5069 | 14.4504 ± 0.091 kg/m3
273.15 K, 1009.5 kPa, x1 = 0.5069 | 14.7466 ± 0.0089 kg/m3 and 14.7469 ± 0.009 kg/m3
273.15 K, 1009.6 kPa, x1 = 0.5069 | 14.7472 ± 0.0089 kg/m3
273.15 K, 1015.4 kPa, x1 = 0.5069 | 14.8425 ± 0.0089 kg/m3
273.15 K, 1015.5 kPa, x1 = 0.5069 | 14.8423 ± 0.009 kg/m3
273.15 K, 1299.2 kPa, x1 = 0.7498 | 14.1894 ± 0.011 kg/m3
273.15 K, 1700.4 kPa, x1 = 0.7498 | 19.0431 ± 0.013 kg/m3 and 19.0434 ± 0.013 kg/m3
273.15 K, 1999 kPa, x1 = 0.7498 | 22.8336 ± 0.018 kg/m3
273.15 K, 1999.7 kPa, x1 = 0.7498 | 22.843 ± 0.017 kg/m3
273.15 K, 2000.5 kPa, x1 = 0.7498 | 22.8522 ± 0.017 kg/m3
273.15 K, 2295.4 kPa, x1 = 0.7498 | 26.7552 ± 0.02 kg/m3
273.15 K, 2297.1 kPa, x1 = 0.7498 | 26.7787 ± 0.02 kg/m3
273.15 K, 2297.8 kPa, x1 = 0.7498 | 26.7892 ± 0.02 kg/m3
273.15 K, 2309.7 kPa, x1 = 0.7498 | 26.9494 ± 0.02 kg/m3
273.15 K, 2310.5 kPa, x1 = 0.7498 | 26.9603 ± 0.02 kg/m3
273.15 K, 2311.3 kPa, x1 = 0.7498 | 26.971 ± 0.019 kg/m3
273.16 K, 500.9 kPa, x1 = 0.7498 | 5.2231 ± 0.0063 kg/m3
273.16 K, 1299.2 kPa, x1 = 0.7498 | 14.1894 ± 0.011 kg/m3
274.02 K, 674.01 kPa, x1 = 0.2658 | 12.0842 ± 0.01 kg/m3
274.13 K, 674.35 kPa, x1 = 0.2658 | 12.084 ± 0.01 kg/m3
274.25 K, 674.71 kPa, x1 = 0.2658 | 12.0838 ± 0.01 kg/m3
274.37 K, 675.08 kPa, x1 = 0.2658 | 12.0836 ± 0.01 kg/m3
274.5 K, 675.47 kPa, x1 = 0.2658 | 12.0837 ± 0.01 kg/m3
274.64 K, 675.87 kPa, x1 = 0.2658 | 12.0831 ± 0.01 kg/m3
274.78 K, 676.29 kPa, x1 = 0.2658 | 12.0823 ± 0.01 kg/m3
274.93 K, 676.74 kPa, x1 = 0.2658 | 12.0821 ± 0.01 kg/m3
275.09 K, 677.21 kPa, x1 = 0.2658 | 12.0819 ± 0.01 kg/m3
275.26 K, 677.71 kPa, x1 = 0.2658 | 12.0812 ± 0.01 kg/m3
275.43 K, 678.23 kPa, x1 = 0.2658 | 12.0807 ± 0.01 kg/m3
275.61 K, 678.78 kPa, x1 = 0.2658 | 12.0804 ± 0.01 kg/m3
275.81 K, 679.35 kPa, x1 = 0.2658 | 12.0795 ± 0.01 kg/m3
276.01 K, 679.96 kPa, x1 = 0.2658 | 12.0795 ± 0.011 kg/m3
276.22 K, 680.58 kPa, x1 = 0.2658 | 12.0783 ± 0.011 kg/m3
276.44 K, 681.24 kPa, x1 = 0.2658 | 12.0781 ± 0.011 kg/m3
276.67 K, 681.92 kPa, x1 = 0.2658 | 12.0776 ± 0.011 kg/m3
276.89 K, 682.58 kPa, x1 = 0.2658 | 12.0781 ± 0.01 kg/m3
277.08 K, 683.2 kPa, x1 = 0.2658 | 12.0796 ± 0.0096 kg/m3
277.2 K, 683.7 kPa, x1 = 0.2658 | 12.0865 ± 0.0089 kg/m3
293.14 K, 149.9 kPa, x1 = 0.2658 | 2.2917 ± 0.0041 kg/m3 and 2.2913 ± 0.0039 kg/m3 and 2.2914 ± 0.0039 kg/m3
293.14 K, 205.57 kPa, x1 = 0.5069 | 2.5567 ± 0.0041 kg/m3 and 2.5566 ± 0.0042 kg/m3
293.14 K, 258.04 kPa, x1 = 0.2658 | 3.9962 ± 0.0042 kg/m3
293.14 K, 355.08 kPa, x1 = 0.2658 | 5.5657 ± 0.0049 kg/m3
293.14 K, 393.87 kPa, x1 = 0.5069 | 4.9714 ± 0.0046 kg/m3
293.14 K, 469.3 kPa, x1 = 0.2658 | 7.4654 ± 0.0051 kg/m3 and 7.465 ± 0.0052 kg/m3
293.14 K, 568.75 kPa, x1 = 0.2658 | 9.168 ± 0.0062 kg/m3 and 9.1681 ± 0.0063 kg/m3
293.14 K, 613.82 kPa, x1 = 0.5069 | 7.8848 ± 0.0061 kg/m3
293.14 K, 655.64 kPa, x1 = 0.2658 | 10.6962 ± 0.0066 kg/m3
293.14 K, 955.23 kPa, x1 = 0.2658 | 16.2976 ± 0.0097 kg/m3
293.14 K, 1006.2 kPa, x1 = 0.5069 | 13.3635 ± 0.0095 kg/m3 and 13.3634 ± 0.0094 kg/m3
293.14 K, 1056.3 kPa, x1 = 0.2658 | 18.3228 ± 0.01 kg/m3 and 18.3227 ± 0.01 kg/m3 and 18.3219 ± 0.011 kg/m3
293.14 K, 1105.6 kPa, x1 = 0.2658 | 19.3403 ± 0.01 kg/m3
293.14 K, 1105.7 kPa, x1 = 0.2658 | 19.3405 ± 0.01 kg/m3
293.14 K, 1209.2 kPa, x1 = 0.5069 | 16.3578 ± 0.012 kg/m3
293.14 K, 1399.6 kPa, x1 = 0.5069 | 19.2779 ± 0.012 kg/m3
293.14 K, 1807.2 kPa, x1 = 0.5069 | 25.9505 ± 0.014 kg/m3 and 25.9502 ± 0.014 kg/m3
293.15 K, 205.57 kPa, x1 = 0.5069 | 2.5568 ± 0.004 kg/m3
293.15 K, 258.04 kPa, x1 = 0.2658 | 3.9961 ± 0.0045 kg/m3 and 3.9961 ± 0.0042 kg/m3
